From US9956293B2, “Targeted therapeutics” (Madrigal Pharmaceuticals, Inc., priority 2014, dated 2018)
pIC50: −log10 of the molar value.

Test system: HER2
Test: HER2 degradation assay with BT-474 cell line (Example 12, FACS)
Type: cell-based
Details: Homo sapiens; BT-474 cells
From the text: HER2 Degradation Assay with BT-474 Cell Line
HER2 has emerged as a key target for anticancer drugs due to its intrinsic involvement in the phosphatidylinositol-3-kinase-Akt/protein kinase B (PI3K-Akt) and the mitogen-activated protein kinase (MAPK) pathways, both of which suppress apoptosis and promote tumor cell survival, gene transcription, angiogenesis, cellular proliferation, migration, mitosis, and differentiation. The degradation of HER2 is a measure of efficacy of anticancer therapeutics that target Hsp90. Accordingly, the SDC-TRAP molecules of the invention that comprise a binding moiety that binds Hsp90 were tested in the following HER2 degradation assay.
BT-474 cells (human breast cancer cell line ATCC HTB-20) were obtained from ATCC and seeded into 12-well tissue culture plates at 0.2×10^6/1.8 mL/well. […] Each test compound was titrated in 4-fold dilutions from 5 μM to 78 nM with DMSO and 200 μL of the titration was added to each well of the cell plate. The DMSO final concentration was 0.2%. Cells were incubated overnight at 37° C. in 5% CO2.
Media was decanted from the plate, cells were washed 1× in PBS. 400 μL trypsin (EDTA) per well was added, and the cells were incubated for 2 to 3 minutes. Cells were collected into FACS tubes containing 1 ml culture medium to neutralize the trypsin and were centrifuged for 5 minutes at 1200 rpm. Supernatant was decanted and the cells were resuspended in 5 μL FITC (anti HER2/nu)/200 μL staining buffer (1×PBS+1% FBS+0.05% Sodium Azide)/tube. Controls were […] IgG isotype control and staining buffer only. Tubes were incubated for 30 minutes in the dark at room temperature. 1 mL staining buffer was added to each tube and the tubes were centrifuged for 6 minutes at 1200 rpm. The supernatant was decanted and 300 μL staining buffer was added to each tube, which was store at 4° C. for FACS (cytometer) analysis. The cytometer readout was normalized and the potency of each compound is evaluated with IC50 calculated with XLfit™ software.

SMILES	pIC50
CC(C)c1cc(-c2nnc(O)n2-c2ccc(CC(=O)N(C)CCCOC(=O)Nc3cccc4c3CN(C3CCC(=O)NC3=O)C4=O)cc2)c(O)cc1O (centres unmarked) [SDC-TRAP-0132, 3-(2-(4-(3-(2,4-dihydroxy-5-isopropylphenyl)-5-hydroxy-4H-1,2,4-triazol-4-yl)phenyl)-N-methylacetamido)propyl(2-(2,6-dioxopiperidin-3-yl)-1-oxoisoindolin-4-yl)carbamate]	< 5.30
CCNC(=O)c1nnc(-c2cc(C(C)C)c(O)cc2O)n1-c1ccc(C(=O)N(C)CCOC(=O)Nc2cccc3c2CN(C2CCC(=O)NC2=O)C3=O)cc1 (centres unmarked) [SDC-TRAP-0133, 2-(4-(3-(2,4-dihydroxy-5-isopropylphenyl)-5-(ethylcarbamoyl)-4H-1,2,4-triazol-4-yl)-N-methylbenzamido)ethyl(2-(2,6-dioxopiperidin-3-yl)-1-oxoisoindolin-4-yl)carbamate]	< 5.00
CCNC(=O)c1nnc(-c2cc(C(C)C)c(O)cc2O)n1-c1ccc(CN2CCC(C(=O)N3CCC(n4cc(-c5cnc(N)c(O[C@H](C)c6c(Cl)ccc(F)c6Cl)c5)cn4)CC3)CC2)cc1 [SDC-TRAP-0134, (R)-4-(4-((4-(4-(4-(6-amino-5-(1-(2,6-dichloro-3-fluorophenyl)ethoxy)pyridin-3-yl)-1H-pyrazol-1-yl)piperidine-1-carbonyl)piperidin-1-yl)methyl)phenyl)-5-(2,4-dihydroxy-5-isopropylphenyl)-N-ethyl-4H-1,2,4-triazole-3-carboxamide]	7.11
CCNC(=O)c1nnc(-c2cc(C(C)C)c(O)cc2O)n1-c1ccc(C(=O)N(C)CCCOC(=O)Nc2cccc3c2CN(C2CCC(=O)NC2=O)C3=O)cc1 (centres unmarked) [SDC-TRAP-0135, 3-(4-(3-(2,4-dihydroxy-5-isopropylphenyl)-5-(ethylcarbamoyl)-4H-1,2,4-triazol-4-yl)-N-methylbenzamido)propyl(2-(2,6-dioxopiperidin-3-yl)-1-oxoisoindolin-4-yl)carbamate]	5.01
CCNC(=O)c1nnc(-c2cc(C(C)C)c(O)cc2O)n1-c1ccc(C(=O)N2CCC(COC(=O)Nc3cccc4c3CN(C3CCC(=O)NC3=O)C4=O)CC2)cc1 (centres unmarked) [SDC-TRAP-0136, (1-(4-(3-(2,4-dihydroxy-5-isopropylphenyl)-5-(ethylcarbamoyl)-4H-1,2,4-triazol-4-yl)benzoyl)piperidin-4-yl)methyl (2-(2,6-dioxopiperidin-3-yl)-1-oxoisoindolin-4-yl)carbamate]	< 5.30
CC(C)c1cc(-c2nnc(O)n2-c2ccc3c(ccn3CCC3CCN(C(=O)Cn4cc(F)c(=O)[nH]c4=O)CC3)c2)c(O)cc1O [SDC-TRAP-0137, 1-(2-(4-(2-(5-(3-(2,4-dihydroxy-5-isopropylphenyl)-5-hydroxy-4H-1,2,4-triazol-4-yl)-1H-indol-1-yl)ethyl)piperidin-1-yl)-2-oxoethyl)-5-fluoropyrimidine-2,4(1H,3H)-dione]	< 5.30
CC(C)c1cc(-c2nnc(O)n2-c2ccc(N3CCN(C(=O)N4CCC(n5cc(-c6cnc(N)c(O[C@H](C)c7c(Cl)ccc(F)c7Cl)c6)cn5)CC4)CC3)cc2)c(O)cc1O [SDC-TRAP-0138, (R)-(4-(4-(6-amino-5-(1-(2,6-dichloro-3-fluorophenyl)ethoxy)pyridin-3-yl)-1H-pyrazol-1-yl)piperidin-1-yl)(4-(4-(3-(2,4-dihydroxy-5-isopropylphenyl)-5-hydroxy-4H-1,2,4-triazol-4-yl)phenyl)piperazin-1-yl)methanone]	6.15
CCNC(=O)c1nnc(-c2cc(C(C)C)c(O)cc2O)n1-c1ccc(C(=O)N(C)CC(=O)N2CCC(n3cc(-c4cnc(N)c(O[C@H](C)c5c(Cl)ccc(F)c5Cl)c4)cn3)CC2)cc1 [SDC-TRAP-0139, (R)-4-(4-((2-(4-(4-(6-amino-5-(1-(2,6-dichloro-3-fluorophenyl)ethoxy)pyridin-3-yl)-1H-pyrazol-1-yl)piperidin-1-yl)-2-oxoethyl)(methyl)carbamoyl)phenyl)-5-(2,4-dihydroxy-5-isopropylphenyl)-N-ethyl-4H-1,2,4-triazole-3-carboxamide]	5.70 to 6.00
CCNC(=O)c1nnc(-c2cc(C(C)C)c(O)cc2O)n1-c1ccc(C(=O)N2CCC(CCOC(=O)Nc3cccc4c3CN(C3CCC(=O)NC3=O)C4=O)CC2)cc1 (centres unmarked) [SDC-TRAP-0140, 2-(1-(4-(3-(2,4-dihydroxy-5-isopropylphenyl)-5-(ethylcarbamoyl)-4H-1,2,4-triazol-4-yl)benzoyl)piperidin-4-yl)ethyl(2-(2,6-dioxopiperidin-3-yl)-1-oxoisoindolin-4-yl)carbamate]	< 5.30
CCNC(=O)c1nnc(-c2cc(C(C)C)c(O)cc2O)n1-c1ccc(C(=O)N(C)CC(=O)Nc2cccc3c2CN(C2CCC(=O)NC2=O)C3=O)cc1 (centres unmarked) [SDC-TRAP-0147, 5-(2,4-dihydroxy-5-isopropylphenyl)-4-(4-((2-((2-(2,6-dioxopiperidin-3-yl)-1-oxoisoindolin-4-yl)amino)-2-oxoethyl)(methyl)carbamoyl)phenyl)-N-ethyl-4H-1,2,4-triazole-3-carboxamide]	5.36
CCNC(=O)c1nnc(-c2cc(C(C)C)c(O)cc2O)n1-c1ccc(CN2CCC(C(=O)Nc3cccc4c3CN(C3CCC(=O)NC3=O)C4=O)CC2)cc1 (centres unmarked) [SDC-TRAP-0149, 1-(4-(3-(2,4-dihydroxy-5-isopropylphenyl)-5-(ethylcarbamoyl)-4H-1,2,4-triazol-4-yl)benzyl)-N-(2-(2,6-dioxopiperidin-3-yl)-1-oxoisoindolin-4-yl)piperidine-4-carboxamide]	5.77
CC(C)c1cc(-c2nnc(O)n2-c2ccc(CN3CCN(C(=O)O[C@H]4CC[C@@]5(C)C(=CC[C@@H]6[C@@H]5CC[C@]5(C)C(c7cccnc7)=CC[C@@H]65)C4)CC3)cc2)c(O)cc1O [SDC-TRAP-0150, (3S,8R,9S,10R,13S,14S)-10,13-dimethyl-17-(pyridin-3-yl)-2,3,4,7,8,9,10,11,12,13,14,15-dodecahydro-1H-cyclopenta[a]phenanthren-3-yl 4-(4-(3-(2,4-dihydroxy-5-isopropylphenyl)-5-hydroxy-4H-1,2,4-triazol-4-yl)benzyl) piperazine-1-carboxylate]	5.85
CC(C)c1cc(-c2nnc(O)n2-c2ccc3c(ccn3CCOCCNC(=O)O[C@H]3CC[C@@]4(C)C(=CC[C@@H]5[C@@H]4CC[C@]4(C)C(c6cccnc6)=CC[C@@H]54)C3)c2)c(O)cc1O [SDC-TRAP-0151, (3S,8R,9S,10R,13S,14S)-10,13-dimethyl-17-(pyridin-3-yl)-2,3,4,7,8,9,10,11,12,13,14,15-dodecahydro-1H-cyclopenta[a]phenanthren-3-yl (2-(2-(5-(3-(2,4-dihydroxy-5-isopropylphenyl)-5-hydroxy-4H-1,2,4-triazol-4-yl)-1H-indol-1-yl)ethoxy)ethyl)carbamate]	5.92
CC(C)c1cc(-c2nnc(O)n2-c2ccc(CC3CCN(C(=O)O[C@H]4CC[C@@]5(C)C(=CC[C@@H]6[C@@H]5CC[C@]5(C)C(c7cccnc7)=CC[C@@H]65)C4)CC3)cc2)c(O)cc1O [SDC-TRAP-0153, (3S,8R,9S,10R,13S,14S)-10,13-dimethyl-17-(pyridin-3-yl)-2,3,4,7,8,9,10,11,12,13,14,15-dodecahydro-1H-cyclopenta[a]phenanthren-3-yl 4-(4-(3-(2,4-dihydroxy-5-isopropylphenyl)-5-hydroxy-4H-1,2,4-triazol-4-yl)benzyl) piperidine-1-carboxylate]	5.20
CC(C)c1cc(-c2nnc(O)n2-c2ccc3c(c2)cc(CN2CCC(COC(=O)Nc4cccc5c4CN(C4CCC(=O)NC4=O)C5=O)CC2)n3C)c(O)cc1O (centres unmarked) [SDC-TRAP-0155, (1-((5-(3-(2,4-dihydroxy-5-isopropylphenyl)-5-hydroxy-4H-1,2,4-triazol-4-yl)-1-methyl-1H-indol-2-yl)methyl)piperidin-4-yl)methyl (2-(2,6-dioxopiperidin-3-yl)-1-oxoisoindolin-4-yl)carbamate]	5.92
CC(C)c1cc(-c2nnc(O)n2-c2ccc(N3CCN(C(=O)c4ccc(COC(=O)Nc5cccc6c5CN(C5CCC(=O)NC5=O)C6=O)cc4)CC3)cc2)c(O)cc1O (centres unmarked) [SDC-TRAP-0156, 4-(4-(4-(3-(2,4-Dihydroxy-5-isopropylphenyl)-5-hydroxy-4H-1,2,4-triazol-4-yl)phenyl)piperazine-1-carbonyl)benzyl (2-(2,6-dioxopiperidin-3-yl)-1-oxoisoindolin-4-yl)carbamate]	5.46
CC(C)c1cc(-c2nnc(O)n2-c2ccc(CN3CCN(C(=O)c4ccc(COC(=O)Nc5cccc6c5CN(C5CCC(=O)NC5=O)C6=O)cc4)CC3)c(F)c2)c(O)cc1O (centres unmarked) [SDC-TRAP-0157, 4-(4-(4-(3-(2,4-dihydroxy-5-isopropylphenyl)-5-hydroxy-4H-1,2,4-triazol-4-yl)-2-fluorobenzyl)piperazine-1-carbonyl)benzyl (2-(2,6-dioxopiperidin-3-yl)-1-oxoisoindolin-4-yl)carbamate]	6.16
